Experimental data taken from patent US20130216614A1, “IMMUNOGENIC COMPOSITIONS AND METHODS FOR TREATING NUEROLOGIC DISORDERS” (Glaxosmithkline Biologicals S.A., priority 2010, published 2013).

Key:
APPSwe/PS1 mice = experiment: Aβ plaque loading in brain, stereological analysis; assay type: in vivo; details: 50 μg/mouse i.p. weekly for 12 weeks
Procedure: Five groups of APPSwe/PS1 mice have received one a week for a period of 12 weeks the following treatment: • Gr1: APPSwe/PS1+NaCl 0.9% n(=20), i.p. injections • Gr4: APPSwe/PS1+CRX527 (20 μg/mouse, 130 μl, n=10), i.p. injections • Gr5: APPSwe/PS1+CRX601 (20 μg/mouse, 130 μl, n=10), i.p. injections • Gr6: APPSwe/PS1+3D MPL (50 μg/mouse, 130 μl, n=10), i.p. injections • Gr8 APPSwe/PS1+AS15 • Gr9: APPSwe/PS1+AS01B ( 1/10th of human dose μg/kg, 50 μl, n=10), i.m. injections
Mice were anesthetized under isofluorane and blood was drawn via cardiac puncture before head decapitation. Brains were rapidly removed from the skulls and placed in cold phosphate buffered saline (PBS) solution. Then hemibrains were separated and olfactory bulbs and cerebellum were removed. One hemibrain was rapidly frozen in liquid nitrogen and stored at −80° C. for protein analysis. The other one was postfixed for 2-4 days in 4% paraformaldehyde (PFA), pH 9.5 at 4° C., and then placed in a PFA solution containing 10% sucrose overnight at 4° C. […]
An observer who was blind to the treatment status of the material did all quantitative histological analyses. […] Briefly, the contours of the prefrontal cortex, the hippocampus and the cortex areas were traced as virtual overlay on the […] images and areas were calculated. The area occupied by all Aβ-labeled plaques was determined. […]

monomeric Aβ = experiment: Immunoblot of monomeric Aβ in brain protein fractions; assay type: in vivo, mice; details: anti Aβ1-16 antibody, vs PBS
Procedure: Proteins from hemi-forebrains were extracted using a modified method of the procedure published by Lesné et al (Lesne et al., 2006). All manipulations were done on ice to minimize protein degradation. One hemi-forebrain was placed in a 1 ml syringe with a 20 G needle. 500 l of buffer A (50 mM Tris-HCl pH 7.6, 0.01% NP-40, 150 mM NaCl, 2 mM EDTA, 0.1% SDS, 1 mM phenylmethylsulfonyl fluoride (PMSF), protease inhibitor cocktail) were added and 10 up and down were made to homogenize the tissue, followed by a 5 minutes centrifugation at 3 000 RPM at 4° C. The supernatant (extracellular proteins enriched fraction) was then collected and frozen at −80° C. […] Protein concentration of each fraction was determined using the Quantipro BCA assay kit (Sigma) according to the manufacturer protocol.
For total Aβ detection, 10-30 μg of extracellular, cytoplasmic and membrane protein fractions were separated on a precast 10-20% SDS polyacrylamide Tris-Tricine gel (Bio-Rad). Separated proteins were then transferred onto polyvinylidene fluoride (PVDF) membranes (PerkinElmer Life and Analytical Sciences) and detected by Western blotting. […]
Quantification was done by determining integrative density of the bands using a gel imaging system (scanner Agfa Arcus II; NIHImage J software version 1.32j) and background values were removed. […] Results are expressed as mean±SEM. […]

3-O-desacyl-4′-monophosphoryl lipid A [3D MPL]
Amyloid beta plaque number (APPSwe/PS1 mice): statistically significant reduction
Aβ total plaque loading by immunofluorescence vs PBS control group (APPSwe/PS1 mice): significant difference
monomeric Aβ in extra-cellular enriched fractions from brains (monomeric Aβ): reduction
